According to ChEMBL document CHEMBL1201862, “PubChem BioAssay data set” (2004):
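These data come from cells grown in 96-well plates and exposed to compound for 48 hours at five concentrations. GI50: concentration for 50% inhibition of growth.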 Active and inactive are the calls of the source. Cut-off read from the data, not from the text of the source: active = GI50 up to about 1.1 µM and inactive = higher.

Columns and labels:
Experiment in all cases: growth of human tumour cells (NCI), 48 h
[1] = system: DU-145
[2] = system: SR
[3] = system: CCRF-CEM
[4] = system: LOX IMVI
[5] = system: SK-MEL-28
[6] = system: RXF 393
[7] = system: EKVX
[8] = system: SNB-75
[9] = system: SF-295
[10] = system: U-251
[11] = system: TK-10
[12] = system: RPMI-8226
[13] = system: HOP-62
[14] = system: UACC-62
[15] = system: OVCAR-5
[16] = system: SK-OV-3
[17] = system: OVCAR-4
[18] = system: Hs-578T
[19] = system: NCI-H23
[20] = system: Malme-3M
[21] = system: SW-620
[22] = system: HT-29
[23] = system: OVCAR-3
[24] = system: 786-0
[25] = system: HOP-92
[26] = system: SNB-19
[27] = system: HL-60
[28] = system: KM12
[29] = system: BT-549
[30] = system: HCT-116
[31] = system: PC-3
[32] = system: SF-268
[33] = system: SK-MEL-5
[34] = system: ACHN
[35] = system: MCF7
[36] = system: UACC-257
[37] = system: CAKI-1
[38] = system: HCT-15
[39] = system: UO-31
[40] = system: NCI-H522
[41] = system: SN12C
[42] = system: MDA-MB-231
[43] = system: T47D
[44] = system: SF-539
[45] = system: SK-MEL-2
[46] = system: IGROV-1
[47] = system: OVCAR-8
[48] = system: MOLT-4
[49] = system: COLO 205
[50] = system: MDA-MB-435
[51] = system: HCC 2998
[52] = system: NCI-H226
[53] = system: M14
[54] = system: K562
[55] = system: A549
[56] = system: MDA-N
[57] = system: NCI/ADR-RES
[58] = system: NCI-H460
[59] = system: A498

Cc1ccc(/C=N/Nc2cc(C)c3cccc(C)c3n2)s1
GI50 [1]: 10500 nM (inactive)
GI50 [2]: 2710 nM (inactive)
GI50 [3]: 4430 nM (inactive)
GI50 [4]: 1630 nM (inactive)
GI50 [5]: 22300 nM (inactive)
GI50 [6]: 9860 nM (inactive)
GI50 [7]: 13500 nM (inactive)
GI50 [8]: 11900 nM (inactive)
GI50 [9]: 7100 nM (inactive)
GI50 [10]: 10600 nM (inactive)
GI50 [11]: 14700 nM (inactive)
GI50 [12]: 6670 nM (inactive)
GI50 [13]: 11800 nM (inactive)
GI50 [14]: 17900 nM (inactive)
GI50 [15]: 9910 nM (inactive)
GI50 [16]: 16400 nM (inactive)
GI50 [17]: 13900 nM (inactive)
GI50 [18]: 13900 nM (inactive)
GI50 [19]: 12200 nM (inactive)
GI50 [20]: 15100 nM (inactive)
GI50 [21]: 8150 nM (inactive)
GI50 [22]: 2860 nM (inactive)
GI50 [23]: 8020 nM (inactive)
GI50 [24]: 2740 nM (inactive)
GI50 [25]: 6400 nM (inactive)
GI50 [26]: 26500 nM (inactive)
GI50 [27]: 3280 nM (inactive)
GI50 [28]: 7310 nM (inactive)
GI50 [29]: 5450 nM (inactive)
GI50 [30]: 2820 nM (inactive)
GI50 [31]: 8200 nM (inactive)
GI50 [32]: 6730 nM (inactive)
GI50 [33]: 9860 nM (inactive)
GI50 [34]: 16500 nM (inactive)
GI50 [35]: 4110 nM (inactive)
GI50 [36]: 18700 nM (inactive)
GI50 [37]: 15800 nM (inactive)
GI50 [38]: 3730 nM
GI50 [39]: 5790 nM (inactive)
GI50 [40]: 2810 nM (inactive)
GI50 [41]: 9080 nM (inactive)
GI50 [42]: > 10000 nM (inactive)
GI50 [43]: 4150 nM (inactive)
GI50 [44]: 13900 nM (inactive)
GI50 [45]: 16000 nM (inactive)
GI50 [46]: 2610 nM (inactive)
GI50 [47]: 10400 nM (inactive)
GI50 [48]: 3210 nM (inactive)
GI50 [49]: 6980 nM (inactive)
GI50 [50]: 7140 nM (inactive)
GI50 [51]: 6380 nM (inactive)
GI50 [52]: 9020 nM (inactive)
GI50 [53]: 4330 nM (inactive)
GI50 [54]: 3460 nM (inactive)
GI50 [55]: 6310 nM (inactive)
GI50 [56]: 8890 nM (inactive)
GI50 [57]: 2990 nM (inactive)

Cc1nc(Cl)c(CBr)c(Cl)n1
GI50 [1]: 2580 nM (inactive)
GI50 [2]: 81.3 nM (active)
GI50 [3]: 152 nM (active)
GI50 [4]: 585 nM (active)
GI50 [5]: 1490 nM (inactive)
GI50 [6]: 2110 nM (inactive)
GI50 [7]: 5870 nM (inactive)
GI50 [8]: 1000 nM (active)
GI50 [9]: 8450 nM (inactive)
GI50 [10]: 2040 nM (inactive)
GI50 [11]: 2080 nM (inactive)
GI50 [12]: 889 nM (active)
GI50 [13]: 1910 nM (inactive)
GI50 [14]: 1380 nM (inactive)
GI50 [15]: 2050 nM (inactive)
GI50 [16]: 3840 nM (inactive)
GI50 [17]: 1830 nM (inactive)
GI50 [18]: 1490 nM (inactive)
GI50 [19]: 1620 nM (inactive)
GI50 [20]: 838 nM (active)
GI50 [21]: 351 nM (active)
GI50 [22]: 728 nM (active)
GI50 [23]: 596 nM (active)
GI50 [24]: 275 nM (active)
GI50 [26]: 3680 nM (inactive)
GI50 [28]: 1030 nM (active)
GI50 [29]: 272 nM (active)
GI50 [30]: 285 nM (active)
GI50 [31]: 1630 nM (inactive)
GI50 [32]: 2690 nM (inactive)
GI50 [33]: 914 nM (active)
GI50 [34]: 1710 nM (inactive)
GI50 [35]: 769 nM (active)
GI50 [36]: 832 nM (active)
GI50 [37]: 2280 nM (inactive)
GI50 [38]: 1610 nM
GI50 [39]: 1680 nM (inactive)
GI50 [40]: 518 nM (active)
GI50 [41]: 1730 nM (inactive)
GI50 [42]: 1950 nM (inactive)
GI50 [43]: 1880 nM (inactive)
GI50 [44]: 1970 nM (inactive)
GI50 [45]: 1870 nM (inactive)
GI50 [46]: 1720 nM (inactive)
GI50 [47]: 1720 nM (inactive)
GI50 [48]: 330 nM (active)
GI50 [49]: 1660 nM (inactive)
GI50 [50]: 1640 nM (inactive)
GI50 [51]: 3640 nM (inactive)
GI50 [52]: 2700 nM (inactive)
GI50 [58]: 2330 nM (inactive)
GI50 [53]: 427 nM (active)
GI50 [54]: 210 nM (active)
GI50 [55]: 6300 nM (inactive)
GI50 [59]: 11700 nM (inactive)
GI50 [56]: 1440 nM (inactive)
GI50 [57]: 2410 nM (inactive)
